US11179412B2, “Methods of treating conditions involving elevated inflammatory response” (University of Pittsburgh—Of the Commonwealth System of …, priority 2017, dated 2021)
Structures can show the parent of a compound that is named as a salt.

System: STING activation (IFNβ release) in iBMDMs
Experiment: IFNβ release ELISA after STING ligand (or LPS) stimulation, iBMDMs
Format: cell-based, mouse
Settings: iBMDMs; 3′3′-cGAMP 10 μg/ml, 16 hours; compound 10 μM
Outline: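 iBMDMs were stimulated with a STING ligand such as 3′3′-cGAMP, or with LPS. Secreted IFNβ in culture medium was measured by commercial mouse or human IFNβ ELISA.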

Row | Compound | fold increase in IFN-β release [fold] | 3′3′-cGAMP-induced IFNβ release
1 | C[C@H](NCc1ccc(OCc2cccc(F)c2)cc1)C(N)=O [Safinamide Mesylate] | 5.18 | 
2 | O=C(/C=C/c1ccccc1)NC(NC(=S)Nc1ccc(Cl)cc1)C(Cl)(Cl)Cl (stereo not drawn) [Sal003] | 0.18 | 
3 | CCOC(=O)NCCCC(=O)NCCc1ccccc1 [Santacruzamate A (CAY10683), Santacruzamate A] | 1.18 | 
4 | Cn1cnc2c(F)c(Nc3ccc(Br)cc3Cl)c(C(=O)NOCCO)cc21 [Selumetinib (AZD6244), Selumetinib] | 0.50 | 
5 | CC(C)[C@H](O)C(=O)N[C@@H](C)C(=O)N[C@@H]1C(=O)N(C)CCc2ccccc21 [Semagacestat (LY450139), Semagacestat] | 1.04 | 
6 | CN[C@H]1CC[C@@H](c2ccc(Cl)c(Cl)c2)c2ccccc21 [Sertraline HCl] | 0.22 | 
7 | CC(NC(=O)c1ccccc1/N=C/c1c(O)ccc2ccccc12)c1ccccc1 (stereo not drawn) [Sirtinol] | 0.26 | 
8 | Cc1cc2c(cc1CC(=O)c1sccc1S(=O)(=O)Nc1onc(C)c1Cl)OCO2 [Sitaxentan sodium] | 1.16 | 
9 | Nc1ccc(C(=O)[O-])c(O)c1.[Na+] [Sodium 4-Aminosalicylate] | 0.74 | 
10 | CNC(=O)c1cc(Oc2ccc(NC(=O)Nc3ccc(Cl)c(C(F)(F)F)c3)cc2)ccn1 [Sorafenib] | 0.91 | 
11 | CN1CCN(c2nc(C3=C(c4c[nH]c5ccccc45)C(=O)NC3=O)c3ccccc3n2)CC1 [Sotrastaurin] | 0.59 | 
12 | O=[N+]([O-])c1ccc2c(c1)S(=O)(=O)C=C2 [Stattic] | 0.10 | 
13 | Cc1cn([C@H]2C=C[C@@H](CO)O2)c(=O)[nH]c1=O [Stavudine (d4T), Stavudine] | 8.20 | promoted
14 | Cc1ccc(-n2nccn2)c(C(=O)N2CCN(c3nc4cc(Cl)ccc4o3)CC[C@H]2C)c1 [Suvorexant (MK-4305), Suvorexant] | 1.54 | 
15 | O=C(Nc1ccncc1)c1cc([N+](=O)[O-])ccc1Cl [T0070907] | 2.09 | 
16 | O=S(=O)(c1ccccc1)N(CC(F)(F)F)c1ccc(C(O)(C(F)(F)F)C(F)(F)F)cc1 [T0901317] | 1.49 | 
17 | CNC(=O)c1ccccc1Nc1nc(Nc2ccc(N3CCOCC3)cc2OC)ncc1Cl [TAE226 (NVP-TAE226)] | 1.50 | 
18 | CNC(=O)c1ccc2cc([C@@]3(O)CCn4cncc43)ccc2c1 [TAK-700 (Orteronel), Orteronel] | 2.72 | 
19 | Cc1cc(OCCCS(C)(=O)=O)cc(C)c1-c1cccc(COc2ccc3c(c2)OC[C@H]3CC(=O)O)c1 [TAK-875] | 1.17 | 
20 | O=C1CC(=O)c2c(Cl)c(Cl)c(Cl)c(Cl)c21 [TCID] | 1.43 | 
21 | COc1ccc(C(=O)Nc2sc3c(c2C(N)=O)CCCC3)cc1OC [TCS 359] | 0.45 | 
22 | Nc1nc(N)c2nc(-c3cccc(O)c3)c(-c3cccc(O)c3)nc2n1 [TG100-115] | 2.65 | 
23 | O=C(NCC1(c2nc(-c3ccccc3)cs2)CCOCC1)c1cccc(-c2noc(C(F)(F)F)n2)c1 [TMP269] | 1.59 | 
24 | NC(=O)Nc1sc(-c2ccc(F)cc2)cc1C(N)=O [TPCA-1] | 2.63 | 
25 | Nc1cccc(-c2cc3c(Oc4cccc(O)c4)ncnc3[nH]2)c1 [TWS119] | 0.35 | 
26 | CN1CC(=O)N2[C@H](c3ccc4c(c3)OCO4)c3[nH]c4ccccc4c3C[C@@H]2C1=O [Tadalafil] | 2.66 | 
